Experimental findings from BindingDB's records for doi:10.1016/j.bmcl.2014.09.001 (University of Pittsburgh, 2014) are described below.

The target of assay [1] is T1, Signal transducer and activator of transcription 1-alpha/beta (Homo sapiens, UniProt P42224).
T1 sequence (P42224 whole entry): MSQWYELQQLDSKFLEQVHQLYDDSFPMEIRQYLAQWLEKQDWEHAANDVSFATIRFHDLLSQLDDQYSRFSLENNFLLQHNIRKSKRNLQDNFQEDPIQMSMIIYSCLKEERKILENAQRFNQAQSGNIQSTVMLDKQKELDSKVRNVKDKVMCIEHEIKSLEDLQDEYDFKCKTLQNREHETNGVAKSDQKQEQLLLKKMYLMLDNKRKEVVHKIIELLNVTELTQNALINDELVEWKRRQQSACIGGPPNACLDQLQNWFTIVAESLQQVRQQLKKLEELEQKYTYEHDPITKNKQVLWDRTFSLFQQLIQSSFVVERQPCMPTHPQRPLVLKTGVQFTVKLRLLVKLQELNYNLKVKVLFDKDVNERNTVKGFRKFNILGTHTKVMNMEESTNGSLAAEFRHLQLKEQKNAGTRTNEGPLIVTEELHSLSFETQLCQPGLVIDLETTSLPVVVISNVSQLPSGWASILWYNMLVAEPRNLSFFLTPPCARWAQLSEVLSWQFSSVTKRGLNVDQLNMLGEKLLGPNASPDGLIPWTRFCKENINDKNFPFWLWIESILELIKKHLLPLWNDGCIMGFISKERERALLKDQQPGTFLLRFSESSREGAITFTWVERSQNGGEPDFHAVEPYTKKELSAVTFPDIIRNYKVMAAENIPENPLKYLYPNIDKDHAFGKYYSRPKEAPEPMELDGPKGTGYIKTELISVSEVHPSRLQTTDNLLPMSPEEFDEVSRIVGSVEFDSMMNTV
Description: Inhibition of IFNgamma-induced STAT1 phosphorylation in human Cal33 cells by Western blot analysis.

The nature of assay [2]: Inhibition of IL-6-induced STAT3 phosphorylation in human Cal33 cells assessed as nuclear translocation by Western blot analysis.

On to `COc1ccc2c(C)nc(Nc3nc(C)cc(O)n3)nc2c1`, for which the IC50 in assay [1] was over 50 µM.

Turning to `Cc1nc(NCc2ccccc2)nc2ccccc12`, the IC50 in assay [1] and in assay [2] was over 30 µM throughout.

`Cc1nc(NCCc2c[nH]c3ccccc23)nc2ccccc12`: the IC50 in assay [1] and in assay [2] was over 30 µM throughout.

For the compound `CC1=CC(C)(C)N=C(Nc2nc(C)c3cc(C)ccc3n2)N1`, in assay [1], the IC50 is over 50 µM.

In the case of `Cc1nc(Nc2ccccc2)nc2ccccc12`, the IC50 in assay [1] was over 30 µM.

Compound `CCOc1ccc2nc(NC3=NC(C)=CC(C)(C)N3)nc(C)c2c1` came in with an IC50 in assay [1] of over 50 µM.

For `Cc1cc2nc(Nc3nc(=O)c(C)c(C)[nH]3)nc(C)c2cc1C`, the IC50 in assay [1] was over 50 µM; in assay [2], 10.4 µM.

Consider `Cc1cc(=O)nc(Nc2nc(C)c3cc4c(cc3n2)OCO4)[nH]1`, for which the 50% inhibitory concentration (IC50) in assay [1] and in assay [2] was over 50 µM each time.

In assay [1], `Cc1ccc2c(C)nc(Nc3nc(=O)c(C)c(C)[nH]3)nc2c1` came in with an IC50 of 35.2 µM.

The compound `Cc1cc(=O)nc(Nc2nc(C)c3cc(C)c(C)cc3n2)[nH]1` yielded an IC50 in assay [1] of over 50 µM.

The compound `COc1ccc2nc(Nc3nc(=O)c(Cc4ccccc4)c(C)[nH]3)nc(C)c2c1` came in with an IC50 in assay [1] of 50 µM.

In the case of `Cc1ccc2c(C)nc(Nc3nc(=O)cc(C)[nH]3)nc2c1`, the midpoint of inhibition in assay [1], the IC50, lay at 39.7 µM.

`Cc1nc(NCCN2CCOCC2)nc2ccccc12`: the IC50 in assay [1] and in assay [2] was over 30 µM throughout.

For the compound `Cc1nc(NCc2ccc3c(c2)OCO3)nc2ccccc12`, the IC50 in assay [1] and in assay [2] was over 30 µM each time.

On to `COc1ccc2nc(Nc3nc(=O)cc(C)[nH]3)nc(C)c2c1`, for which the IC50 in assay [1] was over 50 µM; in assay [2], 34.9 µM.

Take `Cc1[nH]c(Nc2nc(C)c3cc4c(cc3n2)OCO4)nc(=O)c1Cc1ccccc1`: the IC50 in assay [1] and in assay [2] was over 50 µM each time.

As for `Cc1[nH]c(Nc2nc(C)c3cc4c(cc3n2)OCO4)nc(=O)c1C`, the IC50 in assay [1] and in assay [2] was over 50 µM throughout.

Consider `Cc1nc(Nc2nc(=O)cc(-c3ccccc3)[nH]2)nc2cc3c(cc12)OCO3`, for which the IC50 in assay [1] was over 50 µM; in assay [2], 13 µM.

`C=CCc1c(C)[nH]c(Nc2nc(C)c3cc(C)cc(C)c3n2)nc1=O` returned an IC50 in assay [1] of over 50 µM.

Consider `Cc1cc(C)c2nc(Nc3nc(=O)cc(-c4ccccc4)[nH]3)nc(C)c2c1`, for which, in assay [1], the IC50 was over 50 µM.

`Cc1nc(NC2CCCCC2)nc2ccccc12`: the IC50 in assay [1] was over 30 µM.

Turning to `Cc1nc(Nc2ccccn2)nc2ccccc12`, in assay [1], the IC50 was over 30 µM.

As to `Cc1ccc(CNc2nc(C)c3ccccc3n2)o1`, the IC50 in assay [1] was over 30 µM.

`Cc1nc(NCc2cccc3ccccc23)nc2ccccc12` showed an IC50 in assay [1] of over 30 µM.

For `Cc1cc(C)c2nc(Nc3nc(C)c(C)c(O)n3)nc(C)c2c1`, the IC50 in assay [1] was over 50 µM; in assay [2], 6.4 µM.

`CCOc1ccc2nc(Nc3nc(=O)cc(-c4ccccc4)[nH]3)nc(C)c2c1` returned an IC50 in assay [1] of over 50 µM.

As for `CCOc1ccc2nc(Nc3nc(=O)cc(C)[nH]3)nc(C)c2c1`, in assay [1], the IC50 is over 50 µM.

Compound `CCOc1ccc2nc(Nc3nc(=O)c(C)c(C)[nH]3)nc(C)c2c1` gave an IC50 in assay [1] of over 50 µM.

In the case of `CCOc1ccc2c(C)nc(NC3=NC(C)=CC(C)(C)N3)nc2c1` [DNDI1417388], the IC50 in assay [1] was over 50 µM.

`CC1=CC(C)(C)N=C(Nc2nc(C)c3cc(C)cc(C)c3n2)N1` [US9211296, Table 7, Compd: 9] displayed an IC50 in assay [1] of 5.9 µM.
